Assay results from the supplement of paper PMC10307832.

How the values were obtained:
Experiment in all cases: relative viability (nuclei count vs DMSO), 5 days (fraction); higher = more cells survive
EMC-BAC-2 = tested on: EMC-BAC-2
How it was run: (§1)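 After 5 days of treatment, lung cancer cells in 1536-well plates were fixed and stained in a single step (final 0.05% Triton X-100, 1% formaldehyde, 1 ug/ml Hoechst) and their nuclei counted on 4× images. Treatment had been applied by pin tool the day after seeding as one drug alone or as a fixed anchor-drug dose with five library-drug doses (not always all listed) in √10 steps. Relative viability is the nuclei count of treated wells divided by that of vehicle wells, and values are medians of duplicate plates.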

EPLC-272H = tested on: EPLC-272H
How it was run: as §1

H3255 = tested on: H3255
How it was run: as §1

HOP-62 = tested on: HOP-62
How it was run: as §1

LCLC-97TM1 = tested on: LCLC-97TM1
How it was run: as §1

LXF-289 = tested on: LXF-289
How it was run: as §1

NCI-H1563 = tested on: NCI-H1563
How it was run: as §1

NCI-H1650 = tested on: NCI-H1650
How it was run: as §1

NCI-H1915 = tested on: NCI-H1915
How it was run: as §1

NCI-H1993 = tested on: NCI-H1993
How it was run: as §1

NCI-H2009 = tested on: NCI-H2009
How it was run: as §1

NCI-H2023 = tested on: NCI-H2023
How it was run: as §1

NCI-H2085 = tested on: NCI-H2085
How it was run: as §1

NCI-H2126 = tested on: NCI-H2126
How it was run: as §1

NCI-H2342 = tested on: NCI-H2342
How it was run: as §1

NCI-H2347 = tested on: NCI-H2347
How it was run: as §1

NCI-H322M = tested on: NCI-H322M
How it was run: as §1

NCI-H647 = tested on: NCI-H647
How it was run: as §1

NCI-H661 = tested on: NCI-H661
How it was run: as §1

NCI-H727 = tested on: NCI-H727
How it was run: as §1

PC-14 = tested on: PC-14
How it was run: as §1

SK-LU-1 = tested on: SK-LU-1
How it was run: as §1

SW 1573 = tested on: SW 1573
How it was run: as §1

## O=C(O)c1ccc(-c2c[nH]c3ncc(-c4ccccc4)cc23)cc1C1CCCC1 + COc1cccc2cc(-c3nc([C@H]4CC[C@H](C(=O)O)CC4)n4ncnc(N)c34)[nH]c12 [OSI-027] (partner 0.5 µM)
EMC-BAC-2; first compound 0.04 µM
  relative viability: 0.401
EMC-BAC-2; first compound 0.1265 µM
  relative viability: 0.388
EMC-BAC-2; first compound 0.4 µM
  relative viability: 0.39
EMC-BAC-2; first compound 1.265 µM
  relative viability: 0.365
EPLC-272H; first compound 0.04 µM
  relative viability: 0.266
EPLC-272H; first compound 0.1265 µM
  relative viability: 0.283
EPLC-272H; first compound 0.4 µM
  relative viability: 0.292
EPLC-272H; first compound 1.265 µM
  relative viability: 0.281
H3255; first compound 0.04 µM
  relative viability: 0.671
H3255; first compound 0.1265 µM
  relative viability: 0.662
H3255; first compound 0.4 µM
  relative viability: 0.554
H3255; first compound 1.265 µM
  relative viability: 0.506
HOP-62; first compound 0.04 µM
  relative viability: 0.899
HOP-62; first compound 0.1265 µM
  relative viability: 0.859
HOP-62; first compound 0.4 µM
  relative viability: 0.707
HOP-62; first compound 1.265 µM
  relative viability: 0.805
LCLC-97TM1; first compound 0.04 µM
  relative viability: 0.474
LCLC-97TM1; first compound 0.1265 µM
  relative viability: 0.659
LCLC-97TM1; first compound 0.4 µM
  relative viability: 0.518
LCLC-97TM1; first compound 1.265 µM
  relative viability: 0.526
LXF-289; first compound 0.04 µM
  relative viability: 0.848
LXF-289; first compound 0.1265 µM
  relative viability: 0.879
LXF-289; first compound 0.4 µM
  relative viability: 0.764
LXF-289; first compound 1.265 µM
  relative viability: 0.581
NCI-H1563; first compound 0.04 µM
  relative viability: 0.72
NCI-H1563; first compound 0.1265 µM
  relative viability: 0.753
NCI-H1563; first compound 0.4 µM
  relative viability: 0.783
NCI-H1563; first compound 1.265 µM
  relative viability: 0.798
NCI-H1650; first compound 0.04 µM
  relative viability: 0.544
NCI-H1650; first compound 0.1265 µM
  relative viability: 0.624
NCI-H1650; first compound 0.4 µM
  relative viability: 0.624
NCI-H1650; first compound 1.265 µM
  relative viability: 0.394
NCI-H1915; first compound 0.04 µM
  relative viability: 0.629
NCI-H1915; first compound 0.1265 µM
  relative viability: 0.638
NCI-H1915; first compound 0.4 µM
  relative viability: 0.604
NCI-H1915; first compound 1.265 µM
  relative viability: 0.545
NCI-H1993; first compound 0.04 µM
  relative viability: 0.521
NCI-H1993; first compound 0.1265 µM
  relative viability: 0.55
NCI-H1993; first compound 0.4 µM
  relative viability: 0.568
NCI-H1993; first compound 1.265 µM
  relative viability: 0.586
NCI-H2009; first compound 0.04 µM
  relative viability: 0.69
NCI-H2009; first compound 0.1265 µM
  relative viability: 0.687
NCI-H2009; first compound 0.4 µM
  relative viability: 0.648
NCI-H2009; first compound 1.265 µM
  relative viability: 0.549
NCI-H2023; first compound 0.04 µM
  relative viability: 0.516
NCI-H2023; first compound 0.1265 µM
  relative viability: 0.572
NCI-H2023; first compound 0.4 µM
  relative viability: 0.41
NCI-H2023; first compound 1.265 µM
  relative viability: 0.319
NCI-H2085; first compound 0.04 µM
  relative viability: 0.867
NCI-H2085; first compound 0.1265 µM
  relative viability: 0.761
NCI-H2085; first compound 0.4 µM
  relative viability: 0.73
NCI-H2085; first compound 1.265 µM
  relative viability: 0.554
NCI-H2126; first compound 0.04 µM
  relative viability: 0.749
NCI-H2126; first compound 0.1265 µM
  relative viability: 0.732
NCI-H2126; first compound 0.4 µM
  relative viability: 0.827
NCI-H2126; first compound 1.265 µM
  relative viability: 0.618
NCI-H2342; first compound 0.04 µM
  relative viability: 0.489
NCI-H2342; first compound 0.1265 µM
  relative viability: 0.744
NCI-H2342; first compound 0.4 µM
  relative viability: 0.748
NCI-H2342; first compound 1.265 µM
  relative viability: 0.646
NCI-H2347; first compound 0.04 µM
  relative viability: 0.451
NCI-H2347; first compound 0.1265 µM
  relative viability: 0.392
NCI-H2347; first compound 0.4 µM
  relative viability: 0.425
NCI-H2347; first compound 1.265 µM
  relative viability: 0.367
NCI-H322M; first compound 0.04 µM
  relative viability: 0.546
NCI-H322M; first compound 0.1265 µM
  relative viability: 0.588
NCI-H322M; first compound 0.4 µM
  relative viability: 0.674
NCI-H322M; first compound 1.265 µM
  relative viability: 0.521
NCI-H647; first compound 0.04 µM
  relative viability: 0.701
NCI-H647; first compound 0.1265 µM
  relative viability: 0.716
NCI-H647; first compound 0.4 µM
  relative viability: 0.669
NCI-H647; first compound 1.265 µM
  relative viability: 0.574
NCI-H661; first compound 0.04 µM
  relative viability: 0.766
NCI-H661; first compound 0.4 µM
  relative viability: 0.718
NCI-H661; first compound 1.265 µM
  relative viability: 0.734
NCI-H727; first compound 0.04 µM
  relative viability: 0.678
NCI-H727; first compound 0.1265 µM
  relative viability: 0.672
NCI-H727; first compound 0.4 µM
  relative viability: 0.887
NCI-H727; first compound 1.265 µM
  relative viability: 0.667
PC-14; first compound 0.04 µM
  relative viability: 0.759
PC-14; first compound 0.1265 µM
  relative viability: 0.86
PC-14; first compound 0.4 µM
  relative viability: 0.826
PC-14; first compound 1.265 µM
  relative viability: 0.877
SK-LU-1; first compound 0.04 µM
  relative viability: 0.329
SK-LU-1; first compound 0.1265 µM
  relative viability: 0.391
SK-LU-1; first compound 0.4 µM
  relative viability: 0.324
SK-LU-1; first compound 1.265 µM
  relative viability: 0.274
SW 1573; first compound 0.04 µM
  relative viability: 0.685
SW 1573; first compound 0.1265 µM
  relative viability: 0.74
SW 1573; first compound 0.4 µM
  relative viability: 0.55
SW 1573; first compound 1.265 µM
  relative viability: 0.447
